Results on 15 molecules are retold here after US9487504B2, “Imidazolyl analogs as syk inhibitors” (Merck Sharp & Dohme Corp., priority 2012, dated 2016).

Molecules are shown by their SMILES. A value given as a limit tells only on which side of the number the result lay.

One series addresses T1, recombinant human GST-Syk (Homo sapiens, UniProt P43405).
T1 construct: purchased Carna Biosciences 08-176
The series is described as follows: Homogeneous Time-Resolved Fluorescence (HTRF) assay for the recombinant human Syk enzyme. In kind it is biochemical. The following applies: ATP 25 μM, 10-dose titration, read-out: rhSYK Activity. The essentials: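 Recombinant GST-hSyk ([…]) was preincubated 10 min at room temperature with inhibitor (0.1% DMSO) in Tris pH 7.5, then reacted for 45 min with 250 nM biotinylated peptide, 5 mM Mg and 25 μM ATP. Phosphorylation was detected by HTRF (Eu-anti-phosphotyrosine/SA-APC). IC50 was derived from a 10-dose titration (10 μM–0.508 nM) with a 4-parameter fit.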
On to `COC(=O)c1cn(-c2cc(Nc3nccc(C(F)(F)F)n3)cc(N3CCOCC3)c2)cn1` [Example 108, Methyl 1-(3-morpholin-4-yl-5-{[4-(trifluoromethyl)-pyrimidin-2-yl]amino}-phenyl)-1H-imidazole-4-carboxylate], for which the IC50 was 100 to 1000 nM.

For the molecule `Cc1cc(Nc2nccc(C(F)(F)F)n2)cc(-n2cnc([C@]3(O)CC[C@@H](C(=O)N4CCOCC4)CC3)c2)c1` [Example 30, cis-1-[1-(3-methyl-5-{[4-(trifluoromethyl)pyrimidin-2-yl]amino}phenyl)-1H-imidazol-4-yl]-4-(morpholin-4-ylcarbonyl)cyclohexanol], the IC50 was at most 100 nM.

Take `Cc1cc(Nc2nccc(C(F)(F)F)n2)cc(-n2cnc([C@]3(O)CC[C@H](OC(=O)c4ccccc4)CC3)c2)c1` [Example 66, trans-4-hydroxy-4-[1-(3-methyl-5-{[4-(trifluoromethyl)pyrimidin-2-yl]amino}phenyl)-1H-imidazol-4-yl]cyclohexyl benzoate]: the IC50 lay within 100 to 1000 nM.

Regarding `Cc1cc(Nc2nccc(C3CC3)n2)cc(-n2cnc([C@]3(O)CC[C@@H](OC(=O)c4ccccc4)CC3)c2)c1` [Example 42, cis-4-(1-{3-[(4-cyclopropylpyrimidin-2-yl)amino]-5-methylphenyl}-1H-imidazol-4-yl)-4-hydroxycyclohexyl benzoate], the IC50 was at most 100 nM.

Consider `Cc1cc(Nc2nccc(C(F)(F)F)n2)cc(-n2cnc(-c3ccc(C(=O)O)cc3)c2)c1` [Example 71, 4-[1-(3-methyl-5-{[4-(trifluoromethyl)pyrimidin-2-yl]amino}-phenyl)-1H-imidazol-4-yl]benzoic acid], for which the IC50 is at most 100 nM.

As to `Cc1cc(Nc2cc(C(C)(C)C)ccn2)nc(-n2cnc([C@]3(O)CC[C@@H](OC(=O)c4ccccc4)CC3)c2)c1` [Example 52, cis-4-(1-{6-[(4-tert-butylpyridin-2-yl)amino]-4-methylpyridin-2-yl}-1H-imidazol-4-yl)-4-hydroxycyclohexyl benzoate], the IC50 was at most 100 nM.

As to `Cc1cc(Nc2nccc(C(F)(F)F)n2)cc(-n2cnc(C3(O)CCC(C(=O)N4CCCC4)CC3)c2)c1` (stereo not drawn) [Example 31, cis-1-[1-(3-methyl-5-{[4-(trifluoromethyl)pyrimidin-2-yl]amino}phenyl)-1H-imidazol-4-yl]-4-(pyrrolidin-1-ylcarbonyl)cyclohexanol], the IC50 was at most 100 nM.

Consider `Cc1cc(Nc2cc(C(F)(F)F)ccn2)nc(-n2cnc([C@]3(O)CC[C@H](C(=O)O)CC3)c2)c1` [Example 26, trans-4-hydroxy-4-[1-(4-methyl-6-{[4-(trifluoromethyl)pyridin-2-yl]amino}pyridin-2-yl)-1H-imidazol-4-yl]cyclohexanecarboxylic acid], for which the IC50 was at most 100 nM.

As for `Cc1cc(Nc2cc(C(F)(F)F)ccn2)nc(-n2cnc([C@]3(O)CC[C@@H](OC(=O)c4ccccc4)CC3)c2)c1` [Example 64, cis-4-hydroxy-4-[1-(4-methyl-6-{[4-(trifluoromethyl)pyridin-2-yl]amino}pyridin-2-yl)-1H-imidazol-4-yl]cyclohexyl benzoate], the IC50 was at most 100 nM.

`CCCCOC(=O)[C@H]1CC[C@H](C(C)(O)c2cn(-c3cc(C)cc(Nc4nccc(C)n4)c3)cn2)CC1` (relative stereo) [Example 11, Butyl trans-4-[1-hydroxy-1-(1-{3-methyl-5-[(4-methylpyrimidin-2-yl)amino]phenyl}-1H-imidazol-4-yl)ethyl]-cyclohexanecarboxylate]: the IC50 is 100 to 1000 nM.

Regarding `Cc1ccnc(Nc2cc(C)cc(-n3cnc([C@]4(O)CC[C@@H](O)CC4)c3)n2)c1` [Example 46, cis-1-(1-{4-methyl-6-[(4-methylpyridin-2-yl)amino]pyridin-2-yl}-1H-imidazol-4-yl)cyclohexane-1,4-diol], the IC50 was at most 100 nM.

For `COC(=O)c1cn(-c2cc(N)cc(Nc3cc(C(F)(F)F)ccn3)n2)cn1` [Example 85, Methyl 1-(4-amino-6-{[4-(trifluoromethyl)-pyridin-2-yl]amino}-pyridin-2-yl)-1H-imidazole-4-carboxylate], the IC50 was at most 100 nM.

As to `Cc1cc(Nc2nccc(C(F)(F)F)n2)cc(-n2cnc(C3=CCC(C(=O)O)CC3)c2)c1` (stereo not drawn) [Example 3, 4-[1-(3-methyl-5-{[4-(trifluoromethyl)pyrimidin-2-yl]amino}phenyl)-1H-imidazol-4-yl]cyclohex-3-ene-1-carboxylic acid], the IC50 was at most 100 nM.

Turning to `OC(c1cn(-c2cccc(Nc3nccc(C(F)(F)F)n3)c2)cn1)(C1CC1)C1CC1` [Example 82, dicyclopropyl[1-(3-{[4-(trifluoromethyl)-pyrimidin-2-yl]amino}phenyl)-1H-imidazol-4-yl]methanol], the IC50 was at most 100 nM.

Still in this series, the particulars now being: ATP 25 μM, 10-dose titration, read-out: rhSYK IC50.
Regarding `Cc1cc(Nc2nccc(C(F)(F)F)n2)cc(-n2cnc(-c3ccc(C(=O)O)cc3)c2)c1` [Example 71, 4-[1-(3-methyl-5-{[4-(trifluoromethyl)pyrimidin-2-yl]amino}-phenyl)-1H-imidazol-4-yl]benzoic acid], the IC50 was found to be 1.68 nM.

Another series has as its system allergic rhinitis.
Assay: not given
As to conditions: dosed intranasally, phase I/II study; cited from earlier work.
As to `Oc1cccc(Nc2ncc(F)c(Nc3cccc(O)c3)n2)c1` [Example R112], the PGD2 change result is “statistically significant decrease in PGD2” and the clinical safety result is given as “safe across a range of indicators”.

In a further series the test system is allergic rhinitis.
Assay: not given
The following applies: phase II clinical trial; cited from earlier work.
With `Oc1cccc(Nc2ncc(F)c(Nc3cccc(O)c3)n2)c1` [Example R112], the efficacy versus placebo result is recorded as “lack of efficacy versus placebo”.
